pIC50: −log10 of the molar value. Where two headings read alike, the source gives them in different places. Some results are limits rather than exact numbers.

IC50, MMP1 % inhibition and MMP9 % inhibition data for 21 compounds are collected here from US6753337B2, “Alkynyl containing hydroxamic acid compounds as matrix metalloproteinase/tace inhibitors” (Wyeth Holdings Corporation, priority 1999, dated 2004).

Holding throughout (type): biochemical
For one experiment, the target named is T1, MMP-1 (Homo sapiens, UniProt P03956).
T1 sequence (P03956 100-469): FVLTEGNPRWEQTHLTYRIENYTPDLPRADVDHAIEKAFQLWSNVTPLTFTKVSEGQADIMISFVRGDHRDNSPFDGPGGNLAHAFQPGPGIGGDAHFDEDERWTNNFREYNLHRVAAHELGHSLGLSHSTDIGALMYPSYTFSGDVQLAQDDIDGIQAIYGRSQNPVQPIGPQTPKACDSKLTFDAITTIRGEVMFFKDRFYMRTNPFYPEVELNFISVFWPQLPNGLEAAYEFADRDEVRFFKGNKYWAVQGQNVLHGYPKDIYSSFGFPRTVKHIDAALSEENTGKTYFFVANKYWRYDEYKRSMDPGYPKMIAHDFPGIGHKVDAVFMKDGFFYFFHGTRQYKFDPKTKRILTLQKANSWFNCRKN
Kind of experiment: MMP-1 inhibition (thiopeptide or fluorescent peptide substrate). The conditions noted are these: for IC50: cells that print nM; for IC50 / pIC50: read-out: MMP1 IC50.

In a further experiment the target is MMP-13 (Homo sapiens, UniProt P45452). Kind of experiment: MMP-13 inhibition (thiopeptide or fluorescent peptide substrate). The conditions noted are these: read-out: MMP13 IC50. A digest of the protocol: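 Human recombinant MMP-1, MMP-9 or MMP-13 was run either with a thiopeptide substrate plus DTNB (1 mM working dilution) in 50 mM HEPES pH 7.5, 5 mM CaCl2 (colorimetric), or with a quenched fluorescent peptide in HCBC buffer pH 7.0. Reactions started with substrate; the rate slope was compared with control by Dunnett's test.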

The target in the next experiment is MMP-9 (Homo sapiens, UniProt P14780). Kind of experiment: MMP-9 inhibition (thiopeptide or fluorescent peptide substrate). The conditions noted are these: for pIC50: read-out: MMP9 IC50.
Chain of MMP-9 (P14780 94-707): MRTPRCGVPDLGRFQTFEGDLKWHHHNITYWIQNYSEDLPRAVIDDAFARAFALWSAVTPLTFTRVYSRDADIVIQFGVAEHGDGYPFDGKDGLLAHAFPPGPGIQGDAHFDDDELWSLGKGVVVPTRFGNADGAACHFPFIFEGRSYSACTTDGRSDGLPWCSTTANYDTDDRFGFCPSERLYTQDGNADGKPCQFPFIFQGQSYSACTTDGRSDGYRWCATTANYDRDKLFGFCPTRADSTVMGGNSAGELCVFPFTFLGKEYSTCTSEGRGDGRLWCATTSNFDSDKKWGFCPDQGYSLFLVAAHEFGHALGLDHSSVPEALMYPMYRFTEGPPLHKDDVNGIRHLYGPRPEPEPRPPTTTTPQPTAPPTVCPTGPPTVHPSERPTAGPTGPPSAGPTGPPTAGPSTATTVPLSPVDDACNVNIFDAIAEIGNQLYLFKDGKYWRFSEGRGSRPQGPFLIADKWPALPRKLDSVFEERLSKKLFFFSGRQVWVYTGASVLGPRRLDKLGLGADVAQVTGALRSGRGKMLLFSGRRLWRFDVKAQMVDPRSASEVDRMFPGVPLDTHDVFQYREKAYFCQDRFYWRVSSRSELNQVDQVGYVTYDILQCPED

On to `C#CCOc1ccc(S(=O)(=O)C2(C(=O)NO)CCN(Cc3ccc(OC)cc3)CC2)cc1` [Example 28, 1-(4-Methoxy-benzyl)-4-(4-prop-2-ynyloxy-benzenesulfonyl)-piperidine-4-carboxylic acid hydroxyamide], for which the IC50 at MMP-1 was 106 nM. In addition, the pIC50 on MMP-13 is 8.28; on MMP-9 it was 7.81.
Consider `C#CCOc1ccc(S(=O)(=O)C2(C(=O)NO)CCN(Cc3ccc(Cl)cc3)CC2)cc1` [Example 29, 1-(4-Chlorobenzyl)-4-(4-prop-2-ynyloxy-benzenesulfonyl)-piperidine-4-carboxylic acid hydroxyamide], for which, on MMP-1, the 50% inhibitory concentration (IC50) came out at 91 nM. Besides, the pIC50 at MMP-13 was 8.33; at MMP-9, 7.80.
As for `CC#CCOc1ccc(SCC2(C(=O)NO)CCN(C(=O)OC(C)(C)C)CC2)cc1` [Example 30, tert-butyl-4-({[4-(2-butynyloxy)phenyl]sulfanyl}methyl)-4-[(hydroxyamino)-carbonyl]-1-piperidinecarboxylate], the negative logarithm of the IC50 (pIC50) on MMP-1 is less than 5.00; at MMP-13, 5.54; at MMP-9, 5.23.
The corresponding values for `CC#CCOc1ccc(SCC2(C(=O)NO)CCNCC2)cc1` [Example 31, 4-({[4-(But-2-ynyloxy)phenyl]thio}methyl)-N-hydroxypiperidine-4-carboxamide] are less than 5.00, less than 5.00 and less than 5.00.
The corresponding values for `CC#CCOc1ccc([S+]([O-])CC2(C(=O)NO)CCN(C(=O)OC(C)(C)C)CC2)cc1` (stereo not drawn) [Example 32, tert-Butyl-4-({[4-(2-butynyloxy)phenyl]sulfinyl}methyl)-4-[(hydroxyamino)-carbonyl]-1-piperidinecarboxylate] are less than 5.00, 5.56 and less than 5.00.
The like results for `CC#CCOc1ccc([S+]([O-])CC2(C(=O)NO)CCNCC2)cc1` (stereo not drawn) [Example 33, 4-[[[4-(2-Butynyloxy)phenyl]sulfinyl]methyl]-N-hydroxy-4-piperidinecarboxamide] were, in that order, less than 5.00, roughly 5.00 and less than 5.30.
For the compound `CC#CCOc1ccc(S(=O)(=O)CC2(C(=O)NO)CCN(C(=O)OC(C)(C)C)CC2)cc1` [Example 34, tert-Butyl-4-({[4-(but-2-ynyloxy)phenyl]sulfonyl}methyl)-4-[(hydroxyamino)-carbonyl]piperidine-1-carboxylate], the pIC50 on MMP-1 was roughly 5.00; on MMP-13, 6.99; at MMP-9, 5.86.
The corresponding values for `CC#CCOc1ccc(S(=O)(=O)CC2(C(=O)NO)CCN(C(C)=O)CC2)cc1` [Example 36, 1-Acetyl-4-[[[4-(2-butynyloxy)phenyl]sulfonyl]methyl]-N-hydroxy-4-piperidinecarboxamide] are 5.41, 6.42 and 5.55.
The corresponding values for `CC#CCOc1ccc(S(=O)(=O)CC2(C(=O)NO)CCN(C(=O)NC(C)(C)C)CC2)cc1` [Example 38] are roughly 5.00, 6.55 and 5.84.
The like results for `CC#CCOc1ccc(S(=O)(=O)CC2(C(=O)NO)CCN(C(=O)OCc3ccccc3)CC2)cc1` [Example 40, Benzyl 4-({[4-(2-butynyloxy)phenyl]sulfonyl}methyl)-4-[(hydroxyamino)-carbonyl]-1-piperidinecarboxylate] were, in that order, 6.15, 7.44 and 6.37.
For `CC#CCOc1ccc(S(=O)(=O)CC2(C(=O)NO)CCN(Cc3ccccc3)CC2)cc1` [Example 41], the results for the pIC50 on MMP-1, at MMP-13 and on MMP-9 were 5.57, 6.60 and 5.95, respectively.
As for `CC#CCOc1ccc(S(=O)(=O)CC2(C(=O)NO)CCN(C(=O)C3(C)COC(C)(C)OC3)CC2)cc1` [Example 42, 4-({[4-(2-Butynyloxy)phenyl]sulfonyl}methyl)-N-hydroxy-1-[(2,2,5-trimethyl-1,3-dioxan-5-yl)carbonyl]-4-piperidinecarboxamide], the pIC50 at MMP-1 is roughly 5.00; on MMP-13 it was 5.79; on MMP-9 it was less than 5.00.
The like results for `CC#CCOc1ccc(S(=O)(=O)CC2(C(=O)NO)CCN(C(=O)C(C)(CO)CO)CC2)cc1` [Example 43, 4-({[4-(2-Butynyloxy)phenyl]sulfonyl}methyl)-N-hydroxy-1-[3-hydroxy-2-(hydroxymethyl)-2-methylpropanoyl]-4-piperidinecarboxamide] were, in that order, roughly 5.00, 5.79 and less than 5.00.
On MMP-1 (printed in the MMP1 IC50 column, concentration not given), `CC#CCOc1ccc(S(=O)(=O)CC2(C(=O)NO)CCN(C(=N)N)CC2)cc1` [Example 44] had an MMP1 % inhibition of 35%. Moreover, the negative-log IC50 (pIC50) on MMP-13 was 5.62. In addition, the MMP9 % inhibition on MMP-9 (printed in the MMP9 IC50 column, concentration not given) was found to be 50.6%.
As to `CC#CCOc1ccc(S(=O)(=O)CC2(C(=O)NO)CCN(CC#CCO)CC2)cc1` [Example 45], the figures for the pIC50 on MMP-1, at MMP-13 and at MMP-9 were 5.42, 6.37 and 5.45, respectively.
The corresponding values for `CC#CCOc1ccc(S(=O)(=O)C2(C(=O)NO)CCN(C(C)=O)CC2)cc1` [Example 64, 1-Acetyl-4-(4-but-2-ynyloxybenzenesulfonyl)piperidine-4-carboxylic acid hydroxamide] are 5.39, 6.87 and 6.25.
The corresponding values for `CC#CCOc1ccc(S(=O)(=O)C2(C(=O)NO)CCN(C(=O)c3ccccc3)CC2)cc1` [Example 65, 1-Benzoyl-4-(4-but-2-ynyloxybenzenesulfonyl)piperidine-4-carboxylic acid hydroxamide] are 5.45, 6.98 and 6.35.
The corresponding values for `CC#CCOc1ccc(S(=O)(=O)C2(C(=O)NO)CCN(C(=O)c3ccc(OC)cc3)CC2)cc1` [Example 66, 1-(4-Methoxybenzoyl)-4-(4-but-2-ynyloxybenzenesulfonyl)piperidine-4-carboxylic acid hydroxamide] are 5.56, 7.09 and 6.37.
Turning to `CC#CCOc1ccc(S(=O)(=O)C2(C(=O)NO)CCN(C(=O)N3CCCC3)CC2)cc1` [Example 67, 4-(4-But-2-ynyloxybenzenesulfonyl)-N-hydroxy-1-(pyrrolidine-1-carbonyl)-4-piperidinecarboxamide], the pIC50 is 5.69 on MMP-1, 6.46 at MMP-13 and 6.07 at MMP-9.
The corresponding values for `CC#CCOc1ccc(S(=O)(=O)C2(C(=O)NO)CCN(C(=O)OCC)CC2)cc1` [Example 68, Ethyl 4-(4-but-2-ynyloxybenzenesulfonyl)-4-[(hydroxyamino)-carbonyl]-1-piperidinecarboxylate] are 5.65, 6.30 and 5.88.
The corresponding values for `CC#CCOc1ccc(S(=O)(=O)C2(C(=O)NO)CCN(S(=O)(=O)C(F)(F)F)CC2)cc1` [Example 69, 4-(4-But-2-ynyloxybenzenesulfonyl)-N-hydroxy-1-[(trifluoromethyl)-sulfonyl]-4-piperidinecarboxamide] are 5.40, 6.30 and 5.90.
